Laboratory results published in patent US8003649B2 (AstraZeneca AB, priority 2007, dated 2011).

Target: T1, Androgen Receptor (AR) (Homo sapiens, UniProt P10275, T878A)
T1 construct: cell based immuno-fluorescence assay using the LNCaP prostate epithelial cell line; endogenous in cells; host or cells: LNCaP clone FGC (ATCC CRL-1740)
T1 sequence (P10275 1-920 T878A): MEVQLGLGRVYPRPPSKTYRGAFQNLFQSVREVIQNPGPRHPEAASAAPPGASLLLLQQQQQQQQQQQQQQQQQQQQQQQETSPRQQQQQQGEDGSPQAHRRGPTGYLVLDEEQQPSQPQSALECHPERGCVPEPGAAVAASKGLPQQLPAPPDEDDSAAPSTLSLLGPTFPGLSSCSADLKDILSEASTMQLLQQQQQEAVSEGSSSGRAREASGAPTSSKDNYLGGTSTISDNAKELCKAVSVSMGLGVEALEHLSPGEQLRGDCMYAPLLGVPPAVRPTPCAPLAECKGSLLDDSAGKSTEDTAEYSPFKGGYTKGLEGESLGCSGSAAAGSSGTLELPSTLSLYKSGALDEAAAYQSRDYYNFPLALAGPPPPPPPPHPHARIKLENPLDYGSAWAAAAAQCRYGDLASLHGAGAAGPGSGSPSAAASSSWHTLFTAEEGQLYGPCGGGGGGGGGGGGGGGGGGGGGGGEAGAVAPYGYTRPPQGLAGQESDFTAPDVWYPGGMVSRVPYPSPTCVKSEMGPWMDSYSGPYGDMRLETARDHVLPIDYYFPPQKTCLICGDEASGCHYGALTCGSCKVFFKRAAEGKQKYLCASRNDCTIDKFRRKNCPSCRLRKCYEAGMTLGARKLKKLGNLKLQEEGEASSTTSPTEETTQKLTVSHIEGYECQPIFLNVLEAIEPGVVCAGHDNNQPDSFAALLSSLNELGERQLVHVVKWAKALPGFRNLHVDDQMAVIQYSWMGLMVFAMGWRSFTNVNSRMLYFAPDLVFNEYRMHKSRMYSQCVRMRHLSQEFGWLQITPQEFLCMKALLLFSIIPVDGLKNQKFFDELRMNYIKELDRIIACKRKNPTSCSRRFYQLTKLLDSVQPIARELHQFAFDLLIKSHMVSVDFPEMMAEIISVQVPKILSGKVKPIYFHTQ
Experiment: LNCaP Androgen Receptor Down-regulation Cell Assay (immunofluorescence end point)
Assay type: cell-based
Conditions: LNCaP prostate carcinoma cells, compound incubation 20-22 hours, 50% reduction of the AR signal; read-out: Androgen Receptor Down-regulation Assay (a) IC50/μM
Outline: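 AR loss reported as IC50 from curve fits of fluorescence dose-response data, with AR immunostained and read by laser-scanning cytometry. Compound exposure was 20-22 h at 37° C in LNCaP cells grown in 5% charcoal-stripped FBS and plated overnight beforehand.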

SMILES | DC50
FC(F)(F)Cc1nnc2ccc(N3CCN(C(c4ccccc4)c4ccccc4)CC3)nn12 [Example 4, 6-(4-benzhydrylpiperazin-1-yl)-3-(2,2,2-trifluoroethyl)-[1,2,4]triazolo[4,3-b]pyridazine] | 2.5 µM
CS(=O)(=O)c1ccc(CN2CCCN(c3ccc4nnc(C(F)(F)F)n4n3)CC2)cc1 [Example 166, 6-[4-[(4-methylsulfonylphenyl)methyl]-1,4-diazepan-1-yl]-3-(trifluoromethyl)-[1,2,4]triazolo[4,3-b]pyridazine] | 0.93 µM
FC(F)(F)c1ccccc1CN1CCCN(c2ccc3nnc(C(F)(F)F)n3n2)CC1 [Example 174, 3-(trifluoromethyl)-6-[4-[[2-(trifluoromethyl)phenyl]methyl]-1,4-diazepan-1-yl]-[1,2,4]triazolo[4,3-b]pyridazine] | 0.94 µM
N#Cc1cccc(CN2[C@@H]3CC[C@H]2CN(c2ccc4nnc(C(F)(F)F)n4n2)C3)c1 [Example 840] | 2.6 µM
N#Cc1ccc(CN2[C@@H]3CC[C@H]2CN(c2ccc4nnc(C(F)(F)F)n4n2)C3)cc1 [Example 841] | 2.9 µM
Fc1cccc(CN2CCN(c3ccc4nnc(C(F)(F)F)n4n3)CC(F)(F)C2)c1 [Example 842] | 1.1 µM
N#Cc1ccc(CN2CCN(c3ccc4nnc(C(F)(F)F)n4n3)CC(F)(F)C2)cc1 [Example 843] | 0.93 µM
N#Cc1cccc(CN2CCN(c3ccc4nnc(C(F)(F)F)n4n3)CC(F)(F)C2)c1 [Example 844] | 0.78 µM
COCCN(C)C(=O)COc1ccc(C2CCN(c3ccc4nnc(C(F)(F)F)n4n3)CC2)cc1 [Example 851, N-(2-methoxyethyl)-N-methyl-2-[4-[1-[3-(trifluoromethyl)[1,2,4]triazolo[4,3-b]pyridazin-6-yl]piperidin-4-yl]phenoxy]acetamide] | 0.92 µM
CS(=O)(=O)N1CCN(CCCOc2ccc(C3CCN(c4ccc5nnc(C(F)(F)F)n5n4)CC3)cc2)CC1 [Example 855, 6-[4-[4-[3-[4-(methylsulfonyl)piperazin-1-yl]propoxy]phenyl]piperidin-1-yl]-3-(trifluoromethyl)[1,2,4]triazolo[4,3-b]pyridazine] | 0.44 µM
N#Cc1ccc(S(=O)(=O)N2CCN(c3ccc4nnc(C(F)(F)F)n4n3)CC2)cc1 [Example 857, 4-[4-[3-(trifluoromethyl)-[1,2,4]triazolo[3,4-f]pyridazin-6-yl]piperazin-1-yl]sulfonylbenzonitrile] | > 33 µM
C[C@H](c1ccc(C#N)cc1)N1CCN(c2ccc3nnc(C(F)F)n3n2)CC1 [Example 858, 4-[(1R)-1-[4-[3-(difluoromethyl)-[1,2,4]triazolo[3,4-f]pyridazin-6-yl]piperazin-1-yl]ethyl]benzonitrile] | > 33 µM
CS(=O)(=O)c1cc(F)cc(CN2CCN(c3ccc4nnc(C(F)F)n4n3)CC2)c1 [Example 859, 3-(difluoromethyl)-6-[4-[3-fluoro-5-(methylsulfonyl)benzyl]piperazin-1-yl][1,2,4]triazolo[4,3-b]pyridazine] | > 33 µM

Now from value to molecule:

DC50 | SMILES
0.9 µM | FC(F)(F)c1nnc2ccc(N3CCN(c4ccc(OCCn5ccnc5)cc4)CC3)nn12 [Example 845, 6-[4-[4-[2-(1H-imidazol-1-yl)ethoxy]phenyl]piperazin-1-yl]-3-(trifluoromethyl)[1,2,4]triazolo[4,3-b]pyridazine]
0.27 µM | FC(F)(F)c1nnc2ccc(N3CCC(c4ccc(OCCn5ccnc5)cc4)CC3)nn12 [Example 846, 6-[4-[4-[2-(1H-imidazol-1-yl)ethoxy]phenyl]piperidin-1-yl]-3-(trifluoromethyl)[1,2,4]triazolo[4,3-b]pyridazine]
3.5 µM | N#Cc1cnn(CCOc2ccc(N3CCN(c4ccc5nnc(C(F)(F)F)n5n4)CC3)cc2)c1 [Example 848, 1-[2-[4-[4-[3-(trifluoromethyl)[1,2,4]triazolo[4,3-b]pyridazin-6-yl]piperazin-1-yl]phenoxy]ethyl]-1H-pyrazole-4-carbonitrile]
0.68 µM | FC(F)(F)c1nnc2ccc(N3CCC(c4ccc(OCCn5cccn5)cc4)CC3)nn12 [Example 849, 6-[4-[4-[2-(1H-pyrazol-1-yl)ethoxy]phenyl]piperidin-1-yl]-3-(trifluoromethyl)[1,2,4]triazolo[4,3-b]pyridazine]
0.56 µM | N#Cc1cnn(CCOc2ccc(C3CCN(c4ccc5nnc(C(F)(F)F)n5n4)CC3)cc2)c1 [Example 850]
0.29 µM | CC(=O)N1CCN(CCOc2ccc(C3CCN(c4ccc5nnc(C(F)(F)F)n5n4)CC3)cc2)CC1 [Example 852, 6-[4-[4-[2-(4-acetylpiperazin-1-yl)ethoxy]phenyl]piperidin-1-yl]-3-(trifluoromethyl)[1,2,4]triazolo[4,3-b]pyridazine]
2.2 µM | Cn1nccc1CCOc1ccc(N2CCN(c3ccc4nnc(C(F)F)n4n3)CC2)cc1 [Example 856, 3-(difluoromethyl)-6-[4-[4-[2-(1-methyl-1H-pyrazol-5-yl]ethoxy]phenyl]piperazin-1-yl)[1,2,4]triazolo[4,3-b]pyridazine]
0.8 µM | Cn1nccc1CCOc1ccc(C2(O)CCN(c3ccc4nnc(C(F)(F)F)n4n3)CC2)cc1 [Example 860, 4-[4-[2-(1-methyl-1H-pyrazol-5-yl)ethoxy]phenyl]-1-[3-(trifluoromethyl)[1,2,4]triazolo[4,3-b]pyridazin-6-yl]piperidin-4-ol]

Target: T2, isolated rat AR-LBD (Rattus norvegicus, UniProt P15207)
T2 construct: purchased Invitrogen PV4293
T2 sequence (P15207 651-882 limits assumed): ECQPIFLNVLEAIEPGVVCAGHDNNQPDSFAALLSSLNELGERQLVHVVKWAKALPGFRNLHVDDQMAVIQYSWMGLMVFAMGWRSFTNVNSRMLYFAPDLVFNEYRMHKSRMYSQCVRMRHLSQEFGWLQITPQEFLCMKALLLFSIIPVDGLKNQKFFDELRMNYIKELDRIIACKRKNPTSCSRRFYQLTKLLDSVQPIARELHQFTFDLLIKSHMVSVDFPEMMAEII
Experiment: Androgen Receptor Ligand Binding Domain competitive binding assay, Fluorescence Polarisation (PolarScreen)
Conditions: 50% reduction in tracer compound binding to AR-LBD; read-out: Androgen Receptor FP Ligand-Binding Assay IC50/μM
Protocol: b) Androgen Receptor—Ligand Binding Domain Competitive Binding Assay
The ability of compounds to bind to isolated Androgen Receptor Ligand binding domain (AR-LBD) was assessed in competition assays using either a Fluorescence Polarisation (FP) or a LanthaScreen™ Time-Resolved Fluorescence Resonance Energy Transfer (TR-FRET) detection end-point.
For the FP test, an assay test kit was purchased from Invitrogen and used to measure compound binding to the isolated rat AR-LBD which shares 100% sequence identity to the human AR-LBD. The Invitrogen PolarScreen™ Androgen Receptor Competitor Assay Red (Product Code No. PV4293), is a fluorescence polarisation (FP)-based competition assay which measures if test compound can displace a fluorescently-labelled tracer compound. If the test compound binds to the AR-LBD it will prevent the formation of the receptor/tracer complex, which will result in a low polarisation value. […] The assay was performed as essentially described in the Invitrogen method with the exception that the final assay volume was 12 μl and this required an appropriate low volume black 384 well microtitre plate. Compounds were dosed directly from a compound source microplate containing serially diluted compound (4 wells containing 10 mM, […], 1 μM and 10 nM final compound respectively) to an assay microplate using the Labcyte Echo 550. The Echo 550 is a liquid handler that uses acoustic technology to perform direct microplate-to-microplate transfers of DMSO compound solutions and the system can be programmed to transfer multiple small nL volumes of compound from the different source plate wells to give the desired serial dilution of compound in the assay which is then back-filled to normalise the DMSO concentration across the dilution range. FP dose response data obtained with each compound was exported into a suitable software package (such as Origin) to perform curve fitting analysis. Competitive AR binding was expressed as an IC50 value. This was determined by calculation of the concentration of compound that was required to give a 50% reduction in tracer compound binding to AR-LBD.

IC50 | SMILES
20.2 µM | FC(F)(F)Cc1nnc2ccc(N3CCN(C(c4ccccc4)c4ccccc4)CC3)nn12 [Example 4, 6-(4-benzhydrylpiperazin-1-yl)-3-(2,2,2-trifluoroethyl)-[1,2,4]triazolo[4,3-b]pyridazine]
19.6 µM | FC(F)(F)c1nnc2ccc(N3CC4CC3CN4Cc3ccccc3)nn12 (centres unmarked) [Example 41, 6-(5-benzyl-2,5-diazabicyclo[2.2.1]heptan-2-yl)-3-(trifluoromethyl)-[1,2,4]triazolo[4,3-b]pyridazine]
6.09 µM | CS(=O)(=O)c1ccc(CN2CCCN(c3ccc4nnc(C(F)(F)F)n4n3)CC2)cc1 [Example 166, 6-[4-[(4-methylsulfonylphenyl)methyl]-1,4-diazepan-1-yl]-3-(trifluoromethyl)-[1,2,4]triazolo[4,3-b]pyridazine]
16.3 µM | FC(F)(F)c1ccccc1CN1CCCN(c2ccc3nnc(C(F)(F)F)n3n2)CC1 [Example 174, 3-(trifluoromethyl)-6-[4-[[2-(trifluoromethyl)phenyl]methyl]-1,4-diazepan-1-yl]-[1,2,4]triazolo[4,3-b]pyridazine]
14.4 µM | Cc1ccccc1CN1CCCN(c2ccc3nnc(C(F)(F)F)n3n2)CC1 [Example 183, 6-[4-[(2-methylphenyl)methyl]-1,4-diazepan-1-yl]-3-(trifluoromethyl)-[1,2,4]triazolo[4,3-b]pyridazine]
